Experimental data: ChEMBL document CHEMBL5625254, “Design, synthesis and evaluation of ursodeoxycholic acid-cinnamic acid hybrids as potential anti-inflammatory agents by inhibiting Akt/NF-κB and MAPK signaling pathways” (Eur J Med Chem, 2023)
The source made the active and inactive calls. The calls are words filed in the database; no cut-off is given here.

Assays:
RAW264.7 [1] = test: Anti-inflammatory activity in mouse RAW264.7 cells assessed as decrease in LPS-induced ERK phosphorylation at 5 to 20 uM incubated for 24 hrs by Western blot analysis; type: functional, cell-based; settings: dose 5-20 µM
RAW264.7 [2] = test: Anti-inflammatory activity in mouse RAW264.7 cells assessed as decrease in LPS-induced Akt phosphorylation at 5 to 20 uM preincubated for 24 hrs followed by LPS treatment for 30 mins by Western blot analysis; type: functional, cell-based; settings: dose 5-20 µM, time 24.5 hrs
RAW264.7 [3] = test: Anti-inflammatory activity in mouse RAW264.7 cells assessed as decrease in LPS-induced IL-1beta level incubated for 24 hrs by ELISA; type: functional, cell-based; settings: dose 5-20 µM
RAW264.7 [4] = test: Cytotoxicity against mouse RAW264.7 cells assessed as cell viability at 20 uM incubated for 24 hrs by CCK8 assay; type: toxicity, cell-based; settings: raw264.7, 24 h
RAW264.7 [5] = test: Anti-inflammatory activity in mouse RAW264.7 cells assessed as decrease in LPS-induced IL-1beta mRNA level incubated for 24 hrs by RT-PCR analysis; type: functional, cell-based; settings: dose 5-20 µM
RAW264.7 [6] = test: Anti-inflammatory activity in mouse RAW264.7 cells assessed as decrease in LPS-induced IL-6 mRNA level incubated for 24 hrs by RT-PCR analysis; type: functional, cell-based; settings: dose 5-20 µM
RAW264.7 [7] = test: Anti-inflammatory activity in mouse RAW264.7 cells assessed as decrease in LPS-induced IL-6 level incubated for 24 hrs by ELISA; type: functional, cell-based; settings: dose 5-20 µM
RAW264.7 [8] = test: Anti-inflammatory activity in mouse RAW264.7 cells assessed as decrease in LPS-induced PGE2 level incubated for 24 hrs by ELISA; type: functional, cell-based; settings: dose 5-20 µM
Mus musculus [9] = test: Anti-inflammatory activity in endotoxemia ICR mouse model assessed as decrease in LPS-induced serum TNF-alpha level at 10 to 20 mg/kg, IG for 7 days consecutively followed by LPS treatment measured after 24 hrs by ELISA; type: functional, organism-based; settings: dose 10-20 mg/kg, time 8.0 day
RAW264.7 [10] = test: Anti-inflammatory activity in mouse RAW264.7 cells assessed as decrease in LPS-induced COX-2 level at 5 to 20 uM incubated for 24 hrs by Western blot analysis; type: functional, cell-based; settings: dose 5-20 µM
RAW264.7 [11] = test: Anti-inflammatory activity in mouse RAW264.7 cells assessed as inhibition of LPS-induced NO production at 10 uM incubated for 24 hrs relative to control; type: functional
RAW264.7 [12] = test: Anti-inflammatory activity in mouse RAW264.7 cells assessed as decrease in LPS-induced p38 phosphorylation at 5 to 20 uM incubated for 24 hrs by Western blot analysis; type: functional, cell-based; settings: dose 5-20 µM
RAW264.7 [13] = test: Anti-inflammatory activity in mouse RAW264.7 cells assessed as decrease in LPS-induced JNK phosphorylation at 5 to 20 uM incubated for 24 hrs by Western blot analysis; type: functional, cell-based; settings: dose 5-20 µM
RAW264.7 [14] = test: Anti-inflammatory activity in mouse RAW264.7 cells assessed as inhibition of LPS-induced NO production incubated for 24 hrs; type: functional, cell-based
RAW264.7 [15] = test: Anti-inflammatory activity in mouse RAW264.7 cells assessed as decrease in LPS-induced COX-2 mRNA level incubated for 24 hrs by RT-PCR analysis; type: functional, cell-based; settings: dose 5-20 µM
Mus musculus [16] = test: Anti-inflammatory activity in endotoxemia ICR mouse model assessed as decrease in LPS-induced serum IL-6 level at 10 to 20 mg/kg, IG for 7 days consecutively followed by LPS treatment measured after 24 hrs by ELISA; type: functional, organism-based; settings: dose 10-20 mg/kg, time 8.0 day
Mus musculus [17] = test: Anti-inflammatory activity in endotoxemia ICR mouse model assessed as decrease in LPS-induced serum IL-1beta level at 10 to 20 mg/kg, IG for 7 days consecutively followed by LPS treatment measured after 24 hrs by ELISA; type: functional, organism-based; settings: dose 10-20 mg/kg, time 8.0 day
RAW264.7 [18] = test: Anti-inflammatory activity in LPS-stimulated mouse RAW264.7 cells assessed as increase in I-kappa-B-alpha level at 5 to 20 uM preincubated for 24 hrs followed by LPS treatment for 30 mins by Western blot analysis; type: functional, cell-based; settings: dose 5-20 µM, time 24.5 hrs
RAW264.7 [19] = test: Anti-inflammatory activity in mouse RAW264.7 cells assessed as decrease in LPS-induced iNOS level at 5 to 20 uM incubated for 24 hrs by Western blot analysis; type: functional, cell-based; settings: dose 5-20 µM
RAW264.7 [20] = test: Effect on total p65 level in cytoplasm of LPS-stimulated mouse RAW264.7 cells at 5 to 20 uM preincubated for 24 hrs followed by LPS treatment for 30 mins by Western blot analysis; type: functional, cell-based; settings: dose 5-20 µM, time 24.5 hrs
RAW264.7 [21] = test: Anti-inflammatory activity in LPS-stimulated mouse RAW264.7 cells assessed as decrease in p65 level in nucleus at 5 to 20 uM preincubated for 24 hrs followed by LPS treatment for 30 mins by Western blot analysis; type: functional, cell-based; settings: dose 5-20 µM, time 24.5 hrs
RAW264.7 [22] = test: Anti-inflammatory activity in mouse RAW264.7 cells assessed as decrease in LPS-induced TNF-alpha level incubated for 24 hrs by ELISA; type: functional, cell-based; settings: dose 5-20 µM

In the case of `Cc1ccc(/C=C/C(=O)N2CCN(C(=O)CC[C@@H](C)[C@H]3CC[C@H]4[C@@H]5[C@@H](O)C[C@@H]6C[C@H](O)CC[C@]6(C)[C@H]5CC[C@]34C)CC2)cc1`, the Activity (RAW264.7 [1]) is reported as “Active”, the Activity (RAW264.7 [2]) is reported as “Active” and the Activity (RAW264.7 [3]) is reported as “Dose-Dependent Effect”. The Activity (RAW264.7 [4]) was “Non-Toxic”, the Activity (RAW264.7 [5]) was “Dose-Dependent Effect” and the Activity (RAW264.7 [6]) was “Dose-Dependent Effect”. The Activity (RAW264.7 [7]) was “Dose-Dependent Effect”, the Activity (RAW264.7 [8]) was “Dose-Dependent Effect” and the Activity (Mus musculus [9]) was “Active”. The Activity (RAW264.7 [10]) was “Active”, the inhibition at 10 µM (RAW264.7 [11]) was over 50% and the Activity (RAW264.7 [12]) was “Active”. The Activity (RAW264.7 [13]) was “Active”, the IC50 (RAW264.7 [14]; RAW264.7, 24 h) was 7.7 µM and the inhibition (RAW264.7 [14]; dose 1.25-20 µM) was “Dose-Dependent Effect”. The Activity (RAW264.7 [15]) was “Dose-Dependent Effect”, the Activity (Mus musculus [16]) was “Active” and the Activity (Mus musculus [17]) was “Active”. For the same compound, the Activity (RAW264.7 [18]) was “Active”, the Activity (RAW264.7 [19]) was “Active” and the Activity (RAW264.7 [20]) was “inactive”. The Activity (RAW264.7 [21]) was “Active” and the Activity (RAW264.7 [22]) was “Dose-Dependent Effect”.
